Measured values from article PMC9267128, “New 2-[(4-Amino-6-N-substituted-1,3,5-triazin-2-yl)methylthio]-N-(imidazolidin-2-ylidene)-4-chloro-5-methylbenzenesulfonamide Derivatives, Design, Synthesis and Anticancer Evaluation” (International Journal of Molecular Sciences, 2022).

Assays:
HCT-116 (colon cancer) = assay: MTT cell viability assay, HCT-116; format: cell-based, human; conditions: for IC50: MTT assay, 72 h of incubation
Procedure: (§1) Analysis was performed using an MTT assay after 72 h of incubation.
(§2) All chemicals, if not stated otherwise, were obtained from Sigma–Aldrich (St. Louis, MO, USA). The HCT-116 cell line was purchased from ATCC (ATCC-No: CCL-247), while the MCF-7, HeLa and HaCaT cell lines were purchased from Cell Lines Services (Eppelheim, Germany). Cells were cultured in Dulbecco’s modified Eagle’s medium (DMEM) supplemented with 10% fetal bovine serum, 2 mM glutamine, 100 units/mL penicillin and 100 µg/mL streptomycin. Cultures were maintained in a humidified atmosphere with 5% carbon dioxide at 37 °C in an incubator (Heraceus, HeraCell).
(§3) Cell viability was examined using the MTT [3-(4,5-dimethylthiazol-2-yl)-2,5-diphenyltetrazolium bromide] assay. Cells were seeded in 96-well plates at a density of 3 × 10^3 cells/well and treated for 72 h with the tested compounds in the concentration range of 1–100 µM. Then, MTT (0.5 mg/mL) was added to the medium and cells were further incubated for 2 h at 37 °C. In the next stage, cells were lysed with DMSO and the absorbance of the formazan solution was measured at 550 nm with a plate reader (1420 multilabel counter, Victor, Jügesheim, Germany). The experiment was performed in triplicate. Values are expressed as the mean ± SD of at least three independent experiments.

[1] = test system: HaCaT (human keratinocyte cell line); assay: MTT cell viability assay, non-cancerous HaCaT; format: cell-based; conditions: Homo sapiens, HaCaT, 72 h, 72 h of incubation, non-cancerous keratinocytes
Procedure: (§4) Compounds 20–162 were evaluated in vitro for their effects on the viability of three cancer cell lines: HCT-116 (colon cancer), MCF-7 (breast cancer) and HeLa (cervical cancer), as well as the non-cancerous keratinocyte cell line (HaCaT). […] Analysis was performed using an MTT assay after 72 h of incubation.
as §2
as §3, with “experiments. Cisplatin was used as a positive control.” for “experiments.”

HeLa (cervical cancer) = assay: MTT cell viability assay, HeLa; format: cell-based, human; conditions: for IC50: Homo sapiens, HeLa, MTT assay, 72 h of incubation
Procedure: as §1, §2, §3

MCF-7 (breast cancer) = assay: MTT cell viability assay, MCF-7; format: cell-based, human; conditions: for IC50: Homo sapiens, MCF7, 72 h, MTT assay, 72 h of incubation
Procedure: as §4, §2
as §3, with “experiments. Cisplatin was used as a positive control.” for “experiments.”

IC50 (HCT-116 (colon cancer); Homo sapiens, HCT-116, 72 h) [µM] | IC50 (HeLa (cervical cancer)) [µM] | IC50 (MCF-7 (breast cancer)) [µM] | IC50 (HCT-116 (colon cancer)) [µM] | SMILES | IC50 [1] [µM] | Selectivity Index (SI) HCT-116 (HCT-116 (colon cancer); IC50 value toward HaCaT cells/IC50 value toward HCT-116) | Selectivity Index (SI) HeLa (HeLa (cervical cancer); IC50 value toward HaCaT cells/IC50 value toward HeLa) | Selectivity Index (SI) MCF-7 (MCF-7 (breast cancer); IC50 value toward HaCaT cells/IC50 value toward MCF-7)
8 ± 0.1 | 102 ± 2 | 8 ± 0.2 |  | Cc1cc(S(=O)(=O)N=C2NCCN2Cc2ccccc2)c(SCc2nc(N)nc(N3CCN(c4ccccc4)CC3)n2)cc1Cl [Compound 57] | 48 ± 2 |  |  | 
11 ± 0.3 | 14 ± 2 | 17 ± 1 |  | Cc1cc(S(=O)(=O)N=C2NCCN2Cc2ccccc2)c(SCc2nc(N)nc(N3CCN(c4ccc(F)cc4)CC3)n2)cc1Cl [Compound 58] | 29 ± 1 |  |  | 
13 ± 0.3 | 15 ± 1 | 18 ± 1 |  | Cc1cc(S(=O)(=O)N=C2NCCN2Cc2ccccc2)c(SCc2nc(N)nc(N3CCN(c4ccccc4F)CC3)n2)cc1Cl [Compound 59] | 30 ± 1 |  |  | 
8 ± 0.3 | 9 ± 0.5 | 14 ± 0.3 |  | Cc1cc(S(=O)(=O)N=C2NCCN2Cc2ccccc2)c(SCc2nc(N)nc(N3CCN(c4ccc(C(F)(F)F)cc4)CC3)n2)cc1Cl [Compound 60] | 23 ± 1 |  |  | 
6.5 ± 0.1 | 10 ± 0.2 | 9 ± 0.3 |  | Cc1cc(S(=O)(=O)N=C2NCCN2Cc2ccccc2)c(SCc2nc(N)nc(N3CCN(c4cccc(C(F)(F)F)c4)CC3)n2)cc1Cl [Compound 61] | 21 ± 1 |  |  | 
7 ± 0.1 | 12 ± 0.5 | 9 ± 0.5 |  | Cc1cc(S(=O)(=O)N=C2NCCN2Cc2ccccc2)c(SCc2nc(N)nc(N3CCN(c4cccc(Cl)c4)CC3)n2)cc1Cl [Compound 63] | 24 ± 1 |  |  | 
11 ± 0.4 | 15 ± 1 | 14 ± 0.5 |  | Cc1cc(S(=O)(=O)N=C2NCCN2Cc2ccccc2)c(SCc2nc(N)nc(N3CCN(c4ccc(Cl)c(Cl)c4)CC3)n2)cc1Cl [Compound 64] | 28 ± 1 |  |  | 
7 ± 0.2 | 11 ± 0.3 | 11 ± 0.5 |  | Cc1cc(S(=O)(=O)N=C2NCCN2Cc2ccccc2)c(SCc2nc(N)nc(N3CCN(c4ccc(F)c(Cl)c4)CC3)n2)cc1Cl [Compound 65] | 23 ± 1 |  |  | 
12 ± 0.4 | 20 ± 1 | 29 ± 1 |  | COc1ccccc1N1CCN(c2nc(N)nc(CSc3cc(Cl)c(C)cc3S(=O)(=O)N=C3NCCN3Cc3ccccc3)n2)CC1 [Compound 66] | 36 ± 2 |  |  | 
16 ± 0.5 | 14 ± 0.5 | 16 ± 0.5 |  | Cc1cc(S(=O)(=O)N=C2NCCN2Cc2ccccc2)c(SCc2nc(N)nc(N3CCN(Cc4ccccc4)CC3)n2)cc1Cl [Compound 68] | 32 ± 2 |  |  | 
6.5 ± 0.1 | 17 ± 0.5 | 9 ± 0.5 |  | Cc1cc(S(=O)(=O)N=C2NCCN2Cc2ccccc2)c(SCc2nc(N)nc(N3CCC(Cc4ccccc4)CC3)n2)cc1Cl [Compound 72] | 28 ± 1 |  |  | 
< 6 | 14 ± 0.3 | 7.5 ± 0.3 | 5.2 ± 0.2 | Cc1cc(S(=O)(=O)N=C2NCCN2Cc2ccccc2)c(SCc2nc(N)nc(N3CC=C(c4ccc(F)cc4)CC3)n2)cc1Cl [Compound 73] | 29 ± 1 | 5.5 | 2.0 | 3.8
44 ± 2 | 13 ± 0.5 | 12 ± 0.6 |  | Cc1cc(S(=O)(=O)N=C2NCCN2Cc2cccc3ccccc23)c(SCc2nc(N)nc(N3CCc4ccccc43)n2)cc1Cl [Compound 74] | 81 ± 4 |  |  | 
30 ± 2 | 77 ± 5 | 8 ± 0.5 |  | Cc1cc(S(=O)(=O)N=C2NCCN2Cc2cccc3ccccc23)c(SCc2nc(N)nc(Nc3ccccc3)n2)cc1Cl [Compound 75] | 110 ± 5 |  |  | 
46 ± 1 | 28 ± 2 | 25 ± 1 |  | Cc1cc(S(=O)(=O)N=C2NCCN2Cc2cccc3ccccc23)c(SCc2nc(N)nc(N(C)c3ccc(Cl)cc3)n2)cc1Cl [Compound 76] | 99 ± 4 |  |  | 
40 ± 1 | 110 ± 5 | 29 ± 1 |  | Cc1cc(S(=O)(=O)N=C2NCCN2Cc2cccc3ccccc23)c(SCc2nc(N)nc(N3CCN(c4ccccc4)CC3)n2)cc1Cl [Compound 77] | 220 ± 11 |  |  | 
19.5 ± 0.6 | 130 ± 8 | 11 ± 0.5 |  | Cc1cc(S(=O)(=O)N=C2NCCN2Cc2cccc3ccccc23)c(SCc2nc(N)nc(N3CCN(c4ccc(C(F)(F)F)cc4)CC3)n2)cc1Cl [Compound 78] | 280 ± 14 |  |  | 

IC50 (HCT-116 (colon cancer); Homo sapiens, HCT-116, 72 h) [µM] | IC50 (HeLa (cervical cancer)) [µM] | IC50 (MCF-7 (breast cancer)) [µM] | IC50 (HCT-116 (colon cancer)) [µM] | SMILES | IC50 [1] [µM] | Selectivity Index (SI) HCT-116 (HCT-116 (colon cancer); IC50 value toward HaCaT cells/IC50 value toward HCT-116) | Selectivity Index (SI) HeLa (HeLa (cervical cancer); IC50 value toward HaCaT cells/IC50 value toward HeLa) | Selectivity Index (SI) MCF-7 (MCF-7 (breast cancer); IC50 value toward HaCaT cells/IC50 value toward MCF-7)
8.4 ± 0.3 | 63 ± 1 | 8 ± 0.5 |  | Cc1cc(S(=O)(=O)N=C2NCCN2Cc2cccc3ccccc23)c(SCc2nc(N)nc(N3CCN(Cc4ccccc4)CC3)n2)cc1Cl [Compound 81] | 240 ± 12 |  |  | 
19 ± 0.8 | 30 ± 1 | 12 ± 0.1 |  | Cc1cc(S(=O)(=O)N=C2NCCN2Cc2ccc(F)cc2)c(SCc2nc(N)nc(N3CCOCC3)n2)cc1Cl [Compound 82] | 54 ± 2 |  |  | 
10 ± 0.5 | 12 ± 3 | 14 ± 1 |  | Cc1cc(S(=O)(=O)N=C2NCCN2Cc2ccc(F)cc2)c(SCc2nc(N)nc(N3CCc4ccccc43)n2)cc1Cl [Compound 83] | 32 ± 1 |  |  | 
9 ± 0.5 | 15 ± 0.6 | 7 ± 0.1 |  | Cc1cc(S(=O)(=O)N=C2NCCN2Cc2ccc(F)cc2)c(SCc2nc(N)nc(N3CCCc4ccccc43)n2)cc1Cl [Compound 84] | 27 ± 1 |  |  | 
15 ± 0.5 | 21 ± 4 | 23 ± 1 |  | Cc1cc(S(=O)(=O)N=C2NCCN2Cc2ccc(F)cc2)c(SCc2nc(N)nc(Nc3ccccc3)n2)cc1Cl [Compound 85] | 38 ± 1 |  |  | 
13 ± 0.5 | 16 ± 0.2 | 15 ± 0.2 |  | Cc1cc(S(=O)(=O)N=C2NCCN2Cc2ccc(F)cc2)c(SCc2nc(N)nc(Nc3ccc(F)cc3)n2)cc1Cl [Compound 86] | 35 ± 2 |  |  | 
10 ± 0.4 | 15 ± 1 | 7 ± 0.3 |  | Cc1cc(S(=O)(=O)N=C2NCCN2Cc2ccc(F)cc2)c(SCc2nc(N)nc(Nc3ccc(C(F)(F)F)cc3)n2)cc1Cl [Compound 87] | 34 ± 1 |  |  | 
17 ± 0.5 | 25 ± 2 | 31 ± 1 |  | COc1ccc(Nc2nc(N)nc(CSc3cc(Cl)c(C)cc3S(=O)(=O)N=C3NCCN3Cc3ccc(F)cc3)n2)cc1 [Compound 88] | 43 ± 2 |  |  | 
14 ± 0.7 | 17 ± 0.6 | 18 ± 1 |  | Cc1cc(S(=O)(=O)N=C2NCCN2Cc2ccc(F)cc2)c(SCc2nc(N)nc(N(C)c3ccccc3)n2)cc1Cl [Compound 89] | 31 ± 1 |  |  | 
12 ± 0.2 | 15 ± 0.6 | 17 ± 1 |  | Cc1cc(S(=O)(=O)N=C2NCCN2Cc2ccc(F)cc2)c(SCc2nc(N)nc(N(C)c3ccc(Cl)cc3)n2)cc1Cl [Compound 90] | 30 ± 2 |  |  | 
20 ± 1 | 34 ± 2 | 13 ± 0.4 |  | Cc1cc(S(=O)(=O)N=C2NCCN2Cc2ccc(F)cc2)c(SCc2nc(N)nc(N3CCN(C)CC3)n2)cc1Cl [Compound 91] | 54 ± 2 |  |  | 
7 ± 0.3 | 8 ± 0.5 | 8 ± 0.4 |  | Cc1cc(S(=O)(=O)N=C2NCCN2Cc2ccc(F)cc2)c(SCc2nc(N)nc(N3CCN(c4ccccc4)CC3)n2)cc1Cl [Compound 92] | 18 ± 1 |  |  | 
7 ± 0.3 | 8 ± 0.4 | 7 ± 0.5 |  | Cc1cc(S(=O)(=O)N=C2NCCN2Cc2ccc(F)cc2)c(SCc2nc(N)nc(N3CCN(c4ccc(F)cc4)CC3)n2)cc1Cl [Compound 93] | 18 ± 1 |  |  | 
9 ± 0.2 | 12 ± 1 | 14 ± 0.5 |  | Cc1cc(S(=O)(=O)N=C2NCCN2Cc2ccc(F)cc2)c(SCc2nc(N)nc(N3CCN(c4ccccc4F)CC3)n2)cc1Cl [Compound 94] | 25 ± 1 |  |  | 
7 ± 0.3 | 8 ± 0.4 | 7 ± 0.1 |  | Cc1cc(S(=O)(=O)N=C2NCCN2Cc2ccc(F)cc2)c(SCc2nc(N)nc(N3CCN(c4ccc(C(F)(F)F)cc4)CC3)n2)cc1Cl [Compound 95] | 18 ± 1 |  |  | 
6 ± 0.3 | 9 ± 0.3 | 6 ± 0.2 |  | Cc1cc(S(=O)(=O)N=C2NCCN2Cc2ccc(F)cc2)c(SCc2nc(N)nc(N3CCN(c4ccc(Cl)cc4)CC3)n2)cc1Cl [Compound 96] | 22 ± 1 |  |  | 
